According to patent publication US5614534A, “Derivatives of β, β-dimethyl-4-piperidineethanamine as inhibitors of the cholesterol biosynthesis” (Fournier Industrie et Sante, priority 1993, dated 1997):

What follows are compounds tested against T1, epoxysqualene cyclase (Rattus norvegicus, UniProt P48450) (assay: inhibition of epoxysqualene cyclase in rat hepatic microsomes (lanosterol formed from (R,S)-2,3-oxydosqualene)). Settings: 25.10^-6 moles per liter of tested product; 150 μM (R,S)-2,3-oxydosqualene, 60 minutes at 37° C., pH=7.4; read-out: Inhibition percentage (of the quantity of lanosterol formed).
T1 construct: Rat hepatic microsomes were used as the source of the enzyme; from tissue; host or cells: liver microsomes of male Wistar rats
T1 sequence (P48450 1-733): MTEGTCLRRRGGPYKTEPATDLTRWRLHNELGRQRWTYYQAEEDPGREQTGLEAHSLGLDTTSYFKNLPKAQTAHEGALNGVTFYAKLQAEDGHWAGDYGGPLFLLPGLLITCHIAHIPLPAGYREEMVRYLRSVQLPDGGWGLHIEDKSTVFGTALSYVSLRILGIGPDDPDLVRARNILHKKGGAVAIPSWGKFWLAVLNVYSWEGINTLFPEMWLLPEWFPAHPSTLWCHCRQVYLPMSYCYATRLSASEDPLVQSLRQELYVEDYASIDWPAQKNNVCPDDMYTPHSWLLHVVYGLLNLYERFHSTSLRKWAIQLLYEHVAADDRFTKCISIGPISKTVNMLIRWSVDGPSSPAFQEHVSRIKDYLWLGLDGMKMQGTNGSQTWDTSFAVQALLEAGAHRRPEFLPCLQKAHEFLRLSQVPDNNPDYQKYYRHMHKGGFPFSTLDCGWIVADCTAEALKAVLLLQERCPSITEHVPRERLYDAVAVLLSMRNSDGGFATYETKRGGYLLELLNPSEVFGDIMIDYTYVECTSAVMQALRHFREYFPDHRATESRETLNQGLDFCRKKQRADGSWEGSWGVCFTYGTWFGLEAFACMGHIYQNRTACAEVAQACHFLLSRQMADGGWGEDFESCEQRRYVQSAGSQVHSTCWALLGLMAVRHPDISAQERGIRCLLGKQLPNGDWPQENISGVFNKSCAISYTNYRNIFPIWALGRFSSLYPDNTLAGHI
Assay type: biochemical, male Wistar rats
Method: The activity of the Compounds of the invention was evaluated by the observation of an inhibiting effect on epoxysqualene cyclase in the hepatic microsomes of male Wistar rats.
The method consisted of measuring the lanosterol formed from R,S-2,3-oxydosqualene by the microsomal enzyme. The enzyme was prepared using the method described by G. C. Ness (G. C. Ness et. al., Biochem. J., (1986), 233, 167-172).
Method for Measuring the Activity of Epoxysqualene Cyclase
Rat hepatic microsomes were used as the source of the enzyme. The method consisted in measuring the lanosterol formed from (R,S)-2,3-oxydosqualene.The (R,S)-2,3-oxydosqualene, the products to be tested and TWEEN® 80 in organic solution (2-propanone or sulphinyl bis-methane) (25 μl) were placed in test tubes and 400 μl of potassium buffer (0.1M, pH=7.4) was added. The reaction was initiated by adding 100 μl of the microsomes. In a final reaction volume of 525 μl, the mixture contained 150 μM of (R,S)-2,3-oxydosqualene, 0.1% of TWEEN® 80 (to dissolve the (R,S)-2,3-oxydosqualene) and 250 μg of microsomal proteins. The reaction time was 60 minutes at 37° C. The reaction was stopped by addition of 300 μl of methanolic potassium hydroxide (7%) and 20 μg of stigmasterol as an internal standard. After saponification at 80° C. for 30 minutes and stirring using a rotary stirrer, the sterols were extracted with 2 ml of hexane. The lanosterol formed was separated from the (R,S)-2,3-oxydosqualene, the membranal cholesterol and the stigmasterol by gas phase chromatography after transformation to the trimethylsilyl ethers. Derivatisation of the sterols was carried out at 60° C. for 30 minutes after addition of 25 μl of pyridine and 75 μl of the trimethylsilyl ester of 2,2,2-trifluoro-N-trimethylsily-ethanimidic acid containing 1% of trimethylchlorosilane ethers.
After evaporation, the trimethylsilyl ethers were taken up into solution in 100 μl of hexane. An aliquot of this solution (2 μl) was gas chromatographed on a OV1 capillary column (0.32 mm, 25 m) under the following conditions: injection temperature=270° C., furnace temperature=260° C., detector temperature=300° C.; the vector gas was nitrogen at a pressure of 7.10^4 Pa.
The potency of the molecules tested was expressed as the percentage inhibition of the quantity of lanosterol formed for a concentration of 25.10^-6 moles per liter of product tested.

Row | inhibition [%] | Compound
1 | 75 | CCCCCCCCCCCCN1CCC(C(C)(C)CN)CC1 [Example 1, 1-dodecyl-β,β-dimethyl-4-piperidineethanamine]
2 | 97 | CCCCCCCCCCCCN1CCC(C(C)(C)CN(C)C)CC1 [Example 2, 1-dodecyl-N,N,β,β-tetramethyl-4-piperidineethanamine]
3 | 63 | CCCCCCCCCCCCN1CCC(C(C)(C)CN(CC)CC)CC1 [Example 4, 1-dodecyl-N,N-diethyl,β,β-dimethyl-4-piperidineethanamine]
4 | 96 | CCCCCCCCCCCCN1CCC(C(C)(C)CNCC)CC1 [Example 9, 1-dodecyl-N-ethyl,β,β-dimethyl-4-piperidineethanamine]
5 | 66 | CCCCCCCCCCCCN1CCC(C(C)(C)CN(C)C(C)=O)CC1 [Example 10, N-methyl-N-[2-methyl-2-[(1-dodecyl)-4-piperidinyl]propyl]acetamide]
6 | 58 | CCCCCCCCCCCCN1CCC(C(C)(C)CNC(C)=O)CC1 [Example 11, N-[2-methyl-2-[(1-dodecyl)-4-piperidinyl]propyl]-N-acetamide]
7 | 64 | C=CCN1CCC(C(C)(C)CN(C)C)CC1 [Example 13, 1-(2-propenyl)-N,N,β,β-tetramethyl-4-piperidineethanamine]
8 | 48 | CC(C)=CCN1CCC(C(C)(C)CN(C)C)CC1 [Example 14, 1-(3,3-dimethylpropen-2-yl)-N,N,β,β-tetramethyl-4-piperidineethanamine]
9 | 40 | CCCCCCCCCCCCN1CCC(C(C)(C)CN2CCCCC2)CC1 [Example 15, 1-[[2-[4-(1-dodecylpiperidinyl)]-2-methyl]propyl]piperidine]
10 | 100 | CN(C)CC(C)(C)C1CCN(C/C=C/C#CC(C)(C)C)CC1 [Example 16, (E)-1-(6,6-dimethyl-2-hepten-4-yn-1-yl)-N,N,β,β-tetramethyl-4-piperidineethanamine]
11 | 100 | CN(C)CC(C)(C)C1CCN(CCCCCC(C)(C)C)CC1 [Example 17, 1-(6,6-dimethyl-heptyl)-N,N,β,β-tetramethyl-4-piperidineethanamine]
12 | 100 | CC(Cc1ccc(C(C)C)cc1)CN1CCC(C(C)(C)CN(C)C)CC1 (stereo not drawn) [Example 18, 1-[3-[4-(methylethyl)phenyl]-2-methyl-propyl]-N,N,β,β-tetramethyl-4-piperidineethanamine]
13 | 100 | CCCCCCCCCCC(=O)N1CCC(C(C)(C)CN(C)C)CC1 [Example 19, 1-undecanoyl-N,N,β,β-tetramethyl-4-piperidineethanamine]
14 | 100 | CN(C)CC(C)(C)C1CCN(C(=O)CCCCCCCCCCn2ccnc2)CC1 [Example 20, 1-[(11-imidazolyl)undecanoyl]-N,N,β,β-tetramethyl-4-piperidineethanamine]
15 | 100 | CN(C)CC(C)(C)C1CCN(CCCCCCCCCCCn2ccnc2)CC1 [Example 21, 1-[(11-imidazolyl)undecyl]-N,N,β,β-tetramethyl-4-piperidineethanamine]
16 | 93 | CC(C)CCCC(=O)NCCCN1CCC(C(C)(C)CN(C)C)CC1 [Example 24, N-[[4-[2-(1-dimethylamino-2-methyl)propyl]-1-piperidinyl]-1-propyl]-5-methylhexanamide]
17 | 81 | CCOC(=O)CCCN1CCC(C(C)(C)CN(C)C)CC1 [Example 25]
18 | 100 | CC(C)CCCNC(=O)CCCN1CCC(C(C)(C)CN(C)C)CC1 [Example 26, N-(4-methylpentyl)-4-[2-(1-dimethylamino-2-methyl)propyl]-1-piperidinebutanamide]
19 | 100 | CCCCCCCCCCCC(=O)N1CCC(C(C)(C)C[N+](C)(C)C)CC1 [Example 27, 1-[(1-undecyl)carbonyl]-N,N,N,β,β-pentamethyl-4-piperidinethanaminium Iodide]
20 | 87 | CN(C)CC(C)(C)C1CCN(C(=O)C=Cc2ccccc2)CC1 [Example 28, 1-(3-phenylpropenoyl)-N,N,β,β-tetramethyl-4-piperidineethanamine]
21 | 95 | CN(C)CC(C)(C)C1CCN(C(=O)C(C)(C)Oc2ccc(Cl)cc2)CC1 [Example 29, 1-[2-(4-chlorophenoxy)-2,2-dimethyl-ethanoyl]-N,N,β,β-tetramethyl-4-piperidineethanamine]
22 | 92 | CN(C)CC(C)(C)C1CCN(CC(C)(C)Oc2ccc(Cl)cc2)CC1 [Example 30, 1-[2-(4-chlorophenoxy)-2,2-dimethyl-ethyl]-N,N,β,β-tetramethyl-4-piperidineethanamine]
23 | 99 | CN(C)CC(C)(C)C1CCN(CC=Cc2ccccc2)CC1 [Example 31, 1-(3-phenylpropenyl)-N,N,β,β-tetramethyl-4-piperidineethanamine]
24 | 95 | CC(C)Cc1ccc(C(C)CN2CCC(C(C)(C)CN(C)C)CC2)cc1 (stereo not drawn) [Example 32, 1-[2-[4-(2-methylpropyl)phenyl]-2-methylethyl]-N,N,β,β-tetramethyl-4-piperidineethanamine]
